Like-named read-outs stand apart in the source and are kept apart here.
Experiments:
[1] = biological target: T1, complement C5a receptor 1 (C5aR1) (Homo sapiens, UniProt P21730); assay: β-arrestin recruitment via C5aR1 activation in live CHO-K1 cells (PathHunter), agonist mode; type: cell-based
T1 construct: β-galactosidase fragment (PathHunter enzyme complementation); host or cells: CHO-K1 (PathHunter CHO-K1 C5aR1 β-arrestin cell line)
T1 sequence (P21730 1-350): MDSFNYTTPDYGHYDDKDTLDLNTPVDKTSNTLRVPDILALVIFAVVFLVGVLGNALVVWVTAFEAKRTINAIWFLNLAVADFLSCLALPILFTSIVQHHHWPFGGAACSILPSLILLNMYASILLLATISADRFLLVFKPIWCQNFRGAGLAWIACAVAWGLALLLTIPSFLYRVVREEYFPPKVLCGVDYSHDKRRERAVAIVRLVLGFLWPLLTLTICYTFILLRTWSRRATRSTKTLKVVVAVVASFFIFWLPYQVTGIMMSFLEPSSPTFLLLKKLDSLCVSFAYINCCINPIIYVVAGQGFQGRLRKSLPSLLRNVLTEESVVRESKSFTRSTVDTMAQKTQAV
Outline: (§1)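 Live CHO-K1 cells carry two galactosidase enzyme fragments, one fused to β-arrestin and one to C5aR1, so that β-arrestin recruitment restores enzyme activity. Agonist mode tests compounds alone. Antagonist mode tests them against recombinant hC5a at EC90, and IC50 values are reported in binned ranges.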

[2] = biological target: T1, complement C5a receptor 1 (C5aR1); assay: β-arrestin recruitment via C5aR1 activation in live CHO-K1 cells (PathHunter), antagonist mode; type: cell-based; details: antagonist mode; recombinant hC5a (EC90) as competing natural agonist; live CHO-K1 cells; read-out: [Antagonist] B-arrestin2 recruitment: Average IC50
Outline: as §1

[Agonist] B-arrestin2 recruitment: Average EC50 (nM) [1] | IC50 [2] | [Agonist] B-arrestin2 recruitment: Average EC50 (nM) ([1]; at 10 μM) | SMILES
Non-Active | 500 to 5000 nM |  | O=c1c(C2CCN(c3cnccc3C(F)(F)F)CC2)cc2nccnc2n1Cc1nccnc1C(F)(F)F [compound 70, 5-((3-(Trifluoromethyl)pyrazin-2-yl)methyl)-7-(1-(4-(trifluoromethyl)pyridin-3-yl)piperidin-4-yl)pyrido[2,3-b]pyrazin-6(5H)-one]
Non-Active | 500 to 5000 nM |  | O=c1c(C2CCN(c3cnccc3Cl)CC2)cc2nccnc2n1Cc1ncccc1C(F)(F)F [compound 71, 7-(1-(4-Chloropyridin-3-yl)piperidin-4-yl)-5-((3-(trifluoromethyl)pyridin-2-yl)methyl)-pyrido[2,3-b]pyrazin-6(5H)-one]
Non-Active | > 100000 nM |  | O=c1c(C2CCN(c3cccnc3F)CC2)cc2nccnc2n1Cc1ncccc1C(F)(F)F [compound 72, 7-(1-(2-Fluoropyridin-3-yl)piperidin-4-yl)-5-((3-(trifluoromethyl)pyridin-2-yl)methyl) pyrido[2,3-b]pyrazin-6(5H)-one]
Non-Active | 500 to 5000 nM |  | Cc1cnc2c(C)c(C3CCN(c4c(C)cccc4F)CC3)c(=O)n(Cc3nccnc3C(F)(F)F)c2n1 [compound 73, 7-(1-(2-Fluoro-6-methylphenyl)piperidin-4-yl)-3,8-dimethyl-5-((3-(trifluoromethyl)pyrazin-2-yl)methyl)pyrido[2,3-b]pyrazin-6(5H)-one]
Non-Active | 500 to 5000 nM |  | Cc1c(C2CCN(c3cnccc3C(F)(F)F)CC2)c(=O)n(Cc2ncccc2F)c2nccnc12 [compound 86, 5-((3-Fluoropyridin-2-yl)methyl)-8-methyl-7-(1-(4-(trifluoromethyl)pyridin-3-yl)piperidin-4-yl)pyrido[2,3-b]pyrazin-6(5H)-one]
Non-Active | < 500 nM |  | Cc1cccc(F)c1N1CCC(c2cc3nccnc3n(Cc3ncccc3OC(F)(F)F)c2=O)CC1 [compound 87, 7-(1-(2-Fluoro-6-methylphenyl)piperidin-4-yl)-5-((3-(trifluoromethoxy)pyridin-2-yl)methyl)pyrido[2,3-b]pyrazin-6(5H)-one]
Non-Active | < 500 nM |  | Cc1cccc(F)c1N1CCN(c2c(C)c3nccnc3n(Cc3ncccc3C(F)(F)F)c2=O)CC1 [compound 88, 7-(4-(2-Fluoro-6-methylphenyl)piperazin-1-yl)-8-methyl-5-((3-(trifluoromethyl)pyridin-2-yl)methyl)pyrido[2,3-b]pyrazin-6(5H)-one]
Non-Active | 5000 to 100000 nM |  | Cc1cccc(F)c1C1CCN(c2cc3nccnc3n(Cc3nccnc3C(F)(F)F)c2=O)CC1 [compound 89, 7-(4-(2-Fluoro-6-methylphenyl)piperidin-1-yl)-5-((3-(trifluoromethyl)pyrazin-2-yl)methyl) pyrido[2,3-b]pyrazin-6(5H)-one]
Non-Active | 500 to 5000 nM |  | Cc1cnc2c(C)c(N3CCN(c4c(C)cccc4F)CC3)c(=O)n(Cc3ncccc3C(F)(F)F)c2n1 [compound 118, 7-(4-(2-fluoro-6-methylphenyl)piperazin-1-yl)-3,8-dimethyl-5-((3-(trifluoromethyl)pyridin-2-yl)methyl)pyrido[2,3-b]pyrazin-6(5H)-one]
Non-Active | < 500 nM |  | Cc1cnc2cc(C3CCN(c4c(C)cccc4F)CC3)c(=O)n(Cc3nccnc3C(F)F)c2n1 [compound 120, 5-((3-(Difluoromethyl)pyrazin-2-yl)methyl)-7-(1-(2-fluoro-6-methylphenyl)piperidin-4-yl)-3-methylpyrido[2,3-b]pyrazin-6(5H)-one]
Non-Active | < 500 nM |  | Cc1cccc(F)c1N1CCN(c2cc3nccnc3n(Cc3ncccc3OC(F)(F)F)c2=O)CC1 [compound 123, 7-(4-(2-Fluoro-6-methylphenyl)piperazin-1-yl)-5-((3-(trifluoromethoxy)pyridin-2-yl)methyl)pyrido[2,3-b]pyrazin-6(5H)-one]
Non-Active | < 500 nM |  | Cc1cnc2cc(N3CCN(c4c(C)cccc4F)CC3)c(=O)n(Cc3ncccc3OC(F)(F)F)c2n1 [compound 124, 7-(4-(2-Fluoro-6-methylphenyl)piperazin-1-yl)-3-methyl-5-((3-(trifluoromethoxy)pyridin-2-yl)methyl)pyrido[2,3-b]pyrazin-6(5H)-one]
Non-Active | 500 to 5000 nM |  | COc1nccnc1Cn1c(=O)c(N2CCN(c3c(C)cccc3F)CC2)cc2ncc(C)nc21 [compound 125, 7-(4-(2-Fluoro-6-methylphenyl)piperazin-1-yl)-5-((3-methoxypyrazin-2-yl)methyl)-3-methylpyrido[2,3-b]pyrazin-6(5H)-one]
Non-Active | 500 to 5000 nM |  | Cc1nccnc1Cn1c(=O)c(C2CCN(c3c(F)cccc3C(F)(F)F)CC2)cc2nccnc21 [compound 126, 7-(1-(2-Fluoro-6-(trifluoromethyl)phenyl)piperidin-4-yl)-5-((3-methylpyrazin-2-yl)methyl)pyrido[2,3-b]pyrazin-6(5H)-one]
Non-Active | < 500 nM |  | Cc1ccnc(F)c1N1CCC(c2cc3nccnc3n(Cc3ncccc3C(F)(F)F)c2=O)CC1 [compound 127, 7-(1-(2-Fluoro-4-methylpyridin-3-yl)piperidin-4-yl)-5-((3-(trifluoromethyl)pyridin-2-yl)methyl)pyrido[2,3-b]pyrazin-6(5H)-one]
 | 5000 to 100000 nM | Non-Active at 10 μM | Cc1ccnc(F)c1N1CCC(c2cc3nccnc3n(Cc3nccnc3C)c2=O)CC1 [compound 128, 7-(1-(2-Fluoro-4-methylpyridin-3-yl)piperidin-4-yl)-5-((3-methylpyrazin-2-yl)methyl)pyrido[2,3-b]pyrazin-6(5H)-one]
Non-Active | < 500 nM |  | Cc1ccnc(F)c1N1CCC(c2cc3nccnc3n(Cc3nccnc3C(F)(F)F)c2=O)CC1 [compound 129, 7-(1-(2-Fluoro-4-methylpyridin-3-yl)piperidin-4-yl)-5-((3-(trifluoromethyl)pyrazin-2-yl)methyl)pyrido[2,3-b]pyrazin-6(5H)-one]
Non-Active | < 500 nM |  | Cc1cnc2cc(C3CCN(c4c(C)ccnc4F)CC3)c(=O)n(Cc3nccnc3C(F)(F)F)c2n1 [compound 130, 7-(1-(2-Fluoro-4-methylpyridin-3-yl)piperidin-4-yl)-3-methyl-5-((3-(trifluoromethyl)pyrazin-2-yl)methyl)pyrido[2,3-b]pyrazin-6(5H)-one]
Non-Active | < 500 nM |  | Cc1cnc2cc(C3CCN(c4ncsc4C)CC3)c(=O)n(Cc3ncccc3C(F)(F)F)c2n1 [compound 131]
Non-Active | > 100000 nM |  | Cc1cnc2cc(C3CCN(c4nncs4)CC3)c(=O)n(Cc3ncccc3C(F)(F)F)c2n1 [compound 132, 7-(1-(1,3,4-Thiadiazol-2-yl)piperidin-4-yl)-3-methyl-5-((3-(trifluoromethyl)pyridin-2-yl)methyl)pyrido[2,3-b]pyrazin-6(5H)-one]
Non-Active | < 500 nM |  | Cc1cnc2cc(C3CCN(c4c(C)ccnc4F)CC3)c(=O)n(Cc3ncccc3C(F)(F)F)c2n1 [compound 133, 7-(1-(2-Fluoro-4-methylpyridin-3-yl)piperidin-4-yl)-3-methyl-5-((3-(trifluoromethyl)pyridin-2-yl)methyl)pyrido[2,3-b]pyrazin-6(5H)-one]
 | < 500 nM | Non-Active at 10 μM | Cc1cnc2cc(C3CCN(c4c(C)ccnc4F)CC3)c(=O)n(Cc3nccnc3C)c2n1 [compound 134, 7-(1-(2-Fluoro-4-methylpyridin-3-yl)piperidin-4-yl)-3-methyl-5-((3-methylpyrazin-2-yl)methyl)pyrido[2,3-b]pyrazin-6(5H)-one]
Non-Active | > 100000 nM |  | Cc1cccc(F)c1N1CCC(c2nc3ccccc3n(Cc3nccnc3C(F)(F)F)c2=O)CC1 [compound 136, 3-(1-(2-Fluoro-6-methylphenyl)piperidin-4-yl)-1-((3-(trifluoromethyl)pyrazin-2-yl)methyl)quinoxalin-2(1H)-one]
Non-Active | < 500 nM |  | Cc1cnc2cc(C3CCN(c4c(C)cccc4F)CC3)c(=O)n(Cc3ncccc3C(F)F)c2n1 [compound 138, 5-((3-(Difluoromethyl)pyridin-2-yl)methyl)-7-(1-(2-fluoro-6-methylphenyl)piperidin-4-yl)-3-methylpyrido[2,3-b]pyrazin-6(5H)-one]
 | > 100000 nM | Non-Active at 10 μM | Cc1cccc(F)c1N1CCC(c2nc3ccccc3n(Cc3ncccc3C(F)(F)F)c2=O)CC1 [compound 139, 3-(1-(2-Fluoro-6-methylphenyl)piperidin-4-yl)-1-((3-(trifluoromethyl)pyridin-2-yl)methyl)quinoxalin-2(1H)-one]

— US20260317320A1, “C5AR1 ANTAGONISTS AND USES THEREOF” (Vanqua Bio, Inc., priority 2022, published 2026)
